Laboratory results taken from patent US20250281499A1, “FUSED AMINO PYRIMIDINE COMPOUNDS FOR TREATMENT OF NEUROPATHIC AND NEURO-INFLAMMATORY PAIN” (Ovid Therapeutics Inc., priority 2024, published 2025).

Experiments:
hippocampal neurons = assay: Whole cell patch-clamp with imposed Cl− load in hippocampal neurons; assay type: cell-based, Sprague Dawley; conditions: 1 h incubation, 32 mM Cl− load; controls −47.4±2.3
Method: Neuronal Cultures. Hippocampal neurons were prepared from Sprague Dawley E18 embryos and plated at 450,000 per dish and maintained at 37° C. in a humidified 5% CO2 incubator for 10-25 days before experimentation (Lee et al., Nat. Neurosci. 14, 736-743 (2011)).
Neuronal Patch clamp assays. Neuronal cell culture recordings were performed in bath saline at 34° C. For gramicidin perforated-patch experiments, pipettes contained (in mM): 140 KCl and 10 HEPES, pH 7.4 KOH. For whole-cell experiments, pipettes contained (in mM): 115 K-meth-SO4, 30 KCl, 2 Mg-ATP, 4 Na-ATP, 0.4 Na-GTP, and 10 HEPES, pH 7.4 KOH. Bath saline contained the following (in mM): 140 NaCl, 2.5 KCl, 2.5 CaCl2, 2.5 MgCl2, 10 HEPES, and 11 glucose, pH 7.4 NaOH (Kontou et al., 2021, supra). All compound solutions were applied to cells using a three-barreled 700 μm pipe positioned just above the cell (Warner Instruments). […] All voltages from whole-cell experiments were corrected offline using a calculated liquid junction potential value (13.6 mV) in Clampex (Molecular Devices). For gramicidin perforated-patch experiments, intracellular Cl^− values were back-calculated using measured EGABA values and the Nernst equation: […]
5 min after break-in, an initial EGABA value was determined and the effects of a subsequent 5 min incubation with VU0463271 was assessed.

hippocampus = assay: Neuronal cell death in the hippocampus, Compound A with diazepam; assay type: in vivo; conditions: mice, Compound A and diazepam vs diazepam alone
NKCC1 = target: T1, NKCC1 (Homo sapiens, UniProt P55011); assay: Tl+ flux assay, HEK-293 cells expressing NKCC1; assay type: cell-based; conditions: read-out: concentration at which effects on NKCC1 were seen (EC50, FIG. 1G)
T1 construct: expressed in transfected cells; host or cells: HEK-293
T1 sequence (P55011 1-1212): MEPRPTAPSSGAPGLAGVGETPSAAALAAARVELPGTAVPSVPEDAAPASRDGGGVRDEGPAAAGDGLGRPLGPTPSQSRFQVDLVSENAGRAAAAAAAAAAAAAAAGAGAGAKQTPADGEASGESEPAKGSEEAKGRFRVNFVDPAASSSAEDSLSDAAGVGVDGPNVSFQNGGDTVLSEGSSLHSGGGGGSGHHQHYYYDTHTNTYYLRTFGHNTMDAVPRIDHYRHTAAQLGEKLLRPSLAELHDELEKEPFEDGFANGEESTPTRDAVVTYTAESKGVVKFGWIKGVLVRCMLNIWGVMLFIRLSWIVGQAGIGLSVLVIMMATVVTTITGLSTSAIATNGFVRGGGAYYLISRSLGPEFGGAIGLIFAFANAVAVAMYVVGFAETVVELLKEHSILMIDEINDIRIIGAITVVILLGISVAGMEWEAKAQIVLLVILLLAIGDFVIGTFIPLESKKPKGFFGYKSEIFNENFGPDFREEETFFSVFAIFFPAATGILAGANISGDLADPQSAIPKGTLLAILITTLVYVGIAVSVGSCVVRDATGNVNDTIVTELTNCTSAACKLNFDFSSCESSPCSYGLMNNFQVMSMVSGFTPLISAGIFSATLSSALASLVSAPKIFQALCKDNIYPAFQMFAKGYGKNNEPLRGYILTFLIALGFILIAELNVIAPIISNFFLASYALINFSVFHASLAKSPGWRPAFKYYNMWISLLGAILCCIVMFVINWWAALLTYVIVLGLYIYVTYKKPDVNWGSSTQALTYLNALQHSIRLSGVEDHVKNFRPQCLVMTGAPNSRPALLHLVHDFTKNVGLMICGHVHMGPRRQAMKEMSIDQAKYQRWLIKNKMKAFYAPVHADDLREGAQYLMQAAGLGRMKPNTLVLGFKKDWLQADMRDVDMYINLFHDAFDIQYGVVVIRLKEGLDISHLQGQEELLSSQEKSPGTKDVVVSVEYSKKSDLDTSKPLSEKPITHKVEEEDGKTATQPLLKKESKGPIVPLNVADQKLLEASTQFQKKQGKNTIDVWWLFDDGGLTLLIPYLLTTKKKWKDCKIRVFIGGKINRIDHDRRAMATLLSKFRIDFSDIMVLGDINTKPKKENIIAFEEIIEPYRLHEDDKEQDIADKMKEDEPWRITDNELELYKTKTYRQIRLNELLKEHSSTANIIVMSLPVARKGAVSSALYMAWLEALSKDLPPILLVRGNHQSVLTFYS
Method: FLIPR TI Flux assay. HEK-293 cells were washed with HBSS, and then incubated with loading buffer containing TI sensitive fluorescent dye (https://www.moleculardevices.com), 20 μM bumetanide 20 μM ouabain and 2.5 mM probenecid for 1 h at room temperature (RT) under control conditions or with drugs in the dark using a FlexStation 3 microplate reader (Molecular Devices) and imaged […] for 30 min. Stimulus buffer was added containing 5 mM K^+/0.5 mM Tl^+ and cells were imaged every 1.5 over a 190 second time course The initial rate Tl^+ uptake (Relative Fluorescence Units (RFU) per second) was determined following addition of the stimulus buffer as outlined previously (Conway et al., 2017, supra) (Lee et al., 2022, supra).
Several studies have shown that the activity and plasma membrane accumulation of KCC2 is potentiated via phosphorylation of S940, a process mediated by the activity of protein kinase C and protein phosphatase 1 (Lee et al, 2011, supra; Lee et al., J Biol Chem 282, 29777-29784 (2007); Moore et al., Proc. Natl. Acad. Sci. U.S.A 115, 10166-10171 (2018); Moore et al., Trends Neurosci. 40, 555-571 (2017); Silayeva et al., Proc. Natl. Acad. Sci. U.S.A. 112, 3523-3528 (2015)). […] Compared to KCC2, effects on KCC3, KCC4, and NKCC1 were only seen at concentrations more than 35-fold that of KCC2 (>100 μM) (FIG. 1G).

acute brain slices = assay: Late recurrent discharges in acute brain slices exposed to 0-Mg

SMILES: C[C@@H]1CN(c2nc3c(c(Nc4ccc(C5CCCCC5)cc4)n2)COC3)CCO1 [Compound A, (R)—N-(4-cyclohexylphenyl)-2-(2-methylmorpholino)-5,7-dihydrofuro[3,4-d]pyrimidin-4-amine]
- basal EGABA (hippocampal neurons): −59.3±2.1 mV
- neuronal cell death in the hippocampus (hippocampus): significantly reduced
- EC50 (NKCC1): > 100 µM
- development of late recurrent discharges (LRDs) (acute brain slices): reduced
